Reference: patent US20030008338A1, “Assay methods and kits therefor” (LumiTech (UK) Limited, priority 2000, published 2003)

Columns and labels:
Type in all cases: cell-based
K562 cells = assay: AK release bioluminescence assay, K562 cells incubated with ionomycin; design: cytolysis versus control cells at the lowest concentration: dose or concentration left out as unconfirmed
Protocol: (§1) A number of different cell types have been tested for induction of cytotoxicity with soluble agents. Cytolysis is determined after incubation with the agent, when the cell membrane has lost integrity and AK can ‘leak’ out into the surrounding culture medium. The assay is performed by incubating non-microbial (e.g. mammalian) cells, either cell lines or primary cell types including isolated tumour cells, with the agonist(s) of choice. After an appropriate incubation time the cells are simply removed from the incubator and AK activity determined in the culture supernatant. If the cells have been cultured in clear bottomed, white walled plates (Perkin Elmer Life Sciences) in volumes no greater than 100 μl, then the plates are simply placed in a luminometer equipped with injection facilities and 150 μl of AKR added to each of the wells, where an integral reading of light output is measured over 1 second. When using luminometers without injectors the AKR can be added manually preferably using a multichannel pipette. The light output is read as soon after addition of reagent as possible. The increase in light output over the complete medium control is the result of the leakage of AK from damaged cells as a result of incubation with cytolytic inducing substances.
Example 3: Ionomycin is a calcium ionophore that acts as a mobile ion carrier for Ca^2+. We investigated increasing concentrations of this agent on K562 cells. As with the previous examples, the cells were set up in 100 μl volumes in triplicate wells of a 96 well Isoplate™. The concentrations of ionomycin (Sigma) used were […]. Cells were incubated for three hours in the presence of the agent prior to determination of AK activity. The data shown in FIG. 7 are for the 1-second integral reading taken at time 0 using the Wallac MicroBeta Jet.

U937 cells = assay: AK release bioluminescence assay, U937 cells incubated with camptothecin
Protocol: as §1
Example 2: A second model known to induce secondary necrosis is the incubation of U937 cells (ECACC No: 87010802) with camptothecin (Sigma). The cells were set up in triplicate wells of a white Isoplate™ (Perkin Elmer Life Sciences) at serial doubling dilutions of cells with 1000 nM camptothecin. The cells were then incubated with the drug for 4 hours and AK activity was determined as outlined in example 1. […] In the control cells there was a slight increase in AK activity over the complete medium control, but the increase in the presence of the drug was much greater, nearly 3 fold (2.6).

Cem-7 cells = assay: AK (adenylate kinase) release bioluminescence assay, Cem-7 cells incubated with dexamethasone
Protocol: as §1
Example 1: We have investigated 37 different cell lines and models of apoptosis/necrosis induction. One of the first models investigated for this assay was the incubation of Cem-7 cells with dexamethasone. Two different experiments were performed: one experiment where cells at different cell numbers/well were incubated with one concentration of dexamethasone (500 nM, Sigma) for 48 and 72 hours, and another experiment where cells at 5000/well were incubated with increasing concentrations of the agent (0, 10, 25, 50, 75, 100, 150, 200 nM) for 72 hours. The cell suspensions were incubated in 100 μl in triplicate wells of a 96 well clear-bottomed white walled microtitre plate (Perkin Elmer Isoplate™). At the end of the incubation period the plates were assayed for AK activity using the Wallac Microbeta Jet, with 150 μl of AKR added and the RLUs (1 second integral) read at time 0 and every 5 minutes for 45 minutes. […] At 2500 cells per well the activity had increased by 71% from 15 913 RLUs at 48 hours to 27 266 RLUs at 72 hours.

[1] = camptothecin from 50 to 1000 μM, cells at 2500/well

With `C[C@H](CCC(=O)O)C[C@H](C)C[C@H](C)C(=O)/C=C(\O)[C@H](C)C[C@H](C)C/C=C/[C@@H](C)[C@@H](O)[C@@H](C)[C@@H](O)C[C@@H]1CC[C@@](C)([C@H]2CC[C@@](C)([C@@H](C)O)O2)O1` [Ionomycin] as the compound, how does the “AK activity with all concentrations of the agent” value (K562 cells; FIG. 7, increasing concentrations of ionomycin) read?
The value was “significant increase in AK activity”.

What about the “effect on AK activity with increasing concentrations” value (K562 cells; ionomycin 1, 2, 3, 4 and 5 mM, three hours, time 0 reading) of the same compound?
The value was “concentration dependent effect”.

What about the “cytolysis versus control cells at the lowest concentration” value (K562 cells; lowest ionomycin concentration, three hours) of the same compound?
Its value is “significant increase in cytolysis”.

How did the “increase in AK activity in the presence of the drug” value (U937 cells; 1000 nM camptothecin, 4 hours) turn out when `CC[C@@]1(O)C(=O)OCc2c1cc1n(c2=O)Cc2cc3ccccc3nc2-1` [camptothecin] was run?
The value was 2.6 fold.

And the “cell numbers at which the increase in activity was seen” value (U937 cells; 1000 nM camptothecin, 4 hours, serial doubling dilutions of cells)?
Its value is “above 156 /well”.

What about the “concentration at which cytolysis appears” value (U937 cells; [1]) of the same compound?
The value was 100 µM.

And the “enzyme (AK) activity with increasing concentrations” value (U937 cells; [1])?
The value was “concentration dependent increase in enzyme activity”.

With `C[C@@H]1C[C@H]2[C@@H]3CCC4=CC(=O)C=C[C@]4(C)[C@@]3(F)[C@@H](O)C[C@]2(C)[C@@]1(O)C(=O)CO` [dexamethasone] as the compound, how does the AK release (Cem-7 cells; 200 nM dexamethasone, 72 hours, 5000 cells/well) read?
Its AK release is 16900 RLU.

And the “increase in AK activity from 48 hours to 72 hours” value (Cem-7 cells; 500 nM dexamethasone, 2500 cells per well)?
Its value is 71%.

What about the AK activity (Cem-7 cells; 500 nM dexamethasone, 48 hours, 2500 cells per well) of the same compound?
The AK activity was 15 913 RLUs.

What about the AK activity (Cem-7 cells; 500 nM dexamethasone, 72 hours, 2500 cells per well) of the same compound?
Its AK activity is 27 266 RLUs.
